Measurements from ChEMBL document CHEMBL5154884, “Discovery of a Novel Src Homology-2 Domain Containing Protein Tyrosine Phosphatase-2 (SHP2) and Cyclin-Dependent Kinase 4 (CDK4) Dual Inhibitor for the Treatment of Triple-Negative Breast Cancer” (J Med Chem, 2022).

How the values were obtained:
CDK4/Cyclin D3 = CDK4/Cyclin D3 (Homo sapiens, UniProt P11802); assay: Inhibition of recombinant N-terminal GST/His6-fusion tagged human CDK4/Cyclin D3 expressed in Sf9 insect cells using 5-FAM-IPTSPITTTYFFFKKK as substrate preincubated for 10 mins followed by substrate addition and incubated for 3 hrs in presence of ATP by caliper mobility shift analysis
CDK4/Cyclin D3, sequence (P11802 whole entry, the tested form may be a part): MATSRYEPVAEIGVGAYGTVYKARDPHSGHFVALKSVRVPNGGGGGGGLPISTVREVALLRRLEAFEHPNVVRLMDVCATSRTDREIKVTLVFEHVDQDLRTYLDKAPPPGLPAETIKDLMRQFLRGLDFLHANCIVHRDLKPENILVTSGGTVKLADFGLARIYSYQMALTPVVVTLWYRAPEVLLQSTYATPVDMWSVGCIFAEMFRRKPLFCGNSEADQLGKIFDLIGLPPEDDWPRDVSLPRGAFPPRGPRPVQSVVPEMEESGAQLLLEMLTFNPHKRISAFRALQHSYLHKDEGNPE
CDK4/Cyclin D3, sequence (P30281 whole entry, further chain, the tested form may be a part): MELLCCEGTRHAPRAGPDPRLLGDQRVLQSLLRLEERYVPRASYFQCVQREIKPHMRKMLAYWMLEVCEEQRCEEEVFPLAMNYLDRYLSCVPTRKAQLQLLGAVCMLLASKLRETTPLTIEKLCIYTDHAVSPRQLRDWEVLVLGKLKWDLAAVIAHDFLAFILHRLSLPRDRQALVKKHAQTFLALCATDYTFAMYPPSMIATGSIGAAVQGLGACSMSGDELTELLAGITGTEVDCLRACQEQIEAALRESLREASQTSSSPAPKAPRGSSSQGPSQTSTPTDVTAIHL

[1] = target: T1, Tyrosine-protein phosphatase non-receptor type 11 (Homo sapiens, UniProt Q06124); assay: Inhibition of SHP2 (unknown origin) using DiFMUP as substrate incubated for 60 mins followed by substrate addition for 30 mins by microplate reader method
T1 sequence (Q06124 whole entry): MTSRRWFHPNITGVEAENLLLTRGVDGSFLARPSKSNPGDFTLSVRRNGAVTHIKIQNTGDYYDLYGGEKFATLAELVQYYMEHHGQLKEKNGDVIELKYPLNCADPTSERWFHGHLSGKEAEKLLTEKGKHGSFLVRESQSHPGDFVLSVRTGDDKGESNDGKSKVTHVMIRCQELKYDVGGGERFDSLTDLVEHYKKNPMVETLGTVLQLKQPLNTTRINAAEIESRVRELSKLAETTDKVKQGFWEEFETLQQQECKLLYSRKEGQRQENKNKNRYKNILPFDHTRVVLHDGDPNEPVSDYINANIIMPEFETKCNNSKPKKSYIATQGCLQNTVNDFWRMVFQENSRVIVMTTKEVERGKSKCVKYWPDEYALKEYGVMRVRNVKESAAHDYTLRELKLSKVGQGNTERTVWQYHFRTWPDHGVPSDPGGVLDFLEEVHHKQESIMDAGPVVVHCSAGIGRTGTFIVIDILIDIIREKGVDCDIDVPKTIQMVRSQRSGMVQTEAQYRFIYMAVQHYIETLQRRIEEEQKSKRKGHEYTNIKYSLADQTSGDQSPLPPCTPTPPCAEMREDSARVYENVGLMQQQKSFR

MDA-MB-468 [2] = assay: Antiproliferative activity against human MDA-MB-468 cells assessed as inhibition of cell growth incubated for 48 hrs by MTT assay; type: functional, cell-based
EMT6 [3] = assay: Antiproliferative activity against mouse EMT6 cells assessed as inhibition of cell growth incubated for 48 hrs by MTT assay; type: functional, cell-based
MDA-MB-231 [4] = assay: Antiproliferative activity against human MDA-MB-231 cells assessed as inhibition of cell growth incubated for 48 hrs by MTT assay; type: functional, cell-based
MDA-MB-231 [5] = system: MDA-MB-231
EMT6 [6] = assay: Antitumor activity in mouse EMT6 cells implanted in BALB/c syngenic mouse model assessed as tumor growth inhibition at 40 mg/kg, po qd in presence of abemaciclib measured after 18 days relative to control; type: functional; settings: EMT6, 432 h, time 18 day, read-out: TGI
MDA-MB-231 [7] = assay: Induction of apoptosis in human MDA-MB-231 cells assessed as late apoptotic cells at 3 uM incubated for 48 hrs in presence of abemaciclib by Annexin V-FITC/PI staining based flow cytometric analysis (reference value: 1.06%); type: functional
MDA-MB-231 [8] = assay: Induction of apoptosis in human MDA-MB-231 cells assessed as necrotic cells at 3 uM measured after 48 hrs by Annexin V-FITC/PI staining based flow cytometric analysis (reference value: 0.58%); type: functional
MDA-MB-231 [9] = assay: Induction of apoptosis in human MDA-MB-231 cells assessed as viable cells at 3 uM measured after 48 hrs by Annexin V-FITC/PI staining based flow cytometric analysis (reference value: 98.04%); type: functional; settings: read-out: Activity
MDA-MB-231 [10] = assay: Induction of apoptosis in human MDA-MB-231 cells assessed as early apoptotic cells at 3 uM measured after 48 hrs by Annexin V-FITC/PI staining based flow cytometric analysis (reference value: 0.32%); type: functional
MDA-MB-231 [11] = assay: Induction of cell cycle arrest in human MDA-MB-231 cells assessed as accumulation of cells in G2/M phase at 3 uM incubated for 48 hrs by RNase/propidium iodide staining based flow cytometry analysis (reference value: 2.7%); type: functional
MDA-MB-231 [12] = assay: Induction of apoptosis in human MDA-MB-231 cells assessed as late apoptotic cells at 3 uM measured after 48 hrs by Annexin V-FITC/PI staining based flow cytometric analysis (reference value: 1.06%); type: functional
EMT6 [13] = system: EMT6
EMT6 [14] = assay: Antitumor activity against mouse EMT6 cells implanted in BALB/c mouse syngenic model assessed as tumor growth inhibition at 40 mg/kg, po qd and measured after 18 days relative to control; type: functional; settings: EMT6, 432 h, time 18 day, read-out: TGI
MDA-MB-231 [15] = assay: Induction of cell cycle arrest in human MDA-MB-231 cells assessed as accumulation of cells in S phase at 3 uM incubated for 48 hrs by RNase/propidium iodide staining based flow cytometry analysis (reference value: […]); type: functional
MDA-MB-231 [16] = assay: Induction of cell cycle arrest in human MDA-MB-231 cells assessed as accumulation of cells in G2/M phase at 3 uM incubated for 48 hrs in presence of abemaciclib by RNase/propidium iodide staining based flow cytometry analysis (reference value: 2.7%); type: functional
MDA-MB-468 [17] = system: MDA-MB-468
MDA-MB-231 [18] = assay: Induction of cell cycle arrest in human MDA-MB-231 cells assessed as accumulation of cells in G0/G1 phase at 3 uM incubated for 48 hrs by RNase/propidium iodide staining based flow cytometry analysis (reference value: 26.2%); type: functional
MDA-MB-231 [19] = assay: Induction of cell cycle arrest in human MDA-MB-231 cells assessed as accumulation of cells in G0/G1 phase at 3 uM incubated for 48 hrs in presence of abemaciclib by RNase/propidium iodide staining based flow cytometry analysis (reference value: 26.2%); type: functional
MDA-MB-231 [20] = assay: Induction of apoptosis in human MDA-MB-231 cells assessed as early apoptotic cells at 3 uM incubated for 48 hrs in presence of abemaciclib by Annexin V-FITC/PI staining based flow cytometric analysis (reference value: 0.32%); type: functional
MDA-MB-231 [21] = assay: Induction of apoptosis in human MDA-MB-231 cells assessed as viable cells at 3 uM incubated for 48 hrs in presence of abemaciclib by Annexin V-FITC/PI staining based flow cytometric analysis (reference value: 98.04%); type: functional; settings: read-out: Activity
MDA-MB-231 [22] = assay: Induction of apoptosis in human MDA-MB-231 cells assessed as necrotic cells at 3 uM incubated for 48 hrs in presence of abemaciclib by Annexin V-FITC/PI staining based flow cytometric analysis (reference value: 0.58%); type: functional
MDA-MB-231 [23] = assay: Induction of cell cycle arrest in human MDA-MB-231 cells assessed as accumulation of cells in S phase at 3 uM incubated for 48 hrs in presence of abemaciclib by RNase/propidium iodide staining based flow cytometry analysis (reference value: […]); type: functional

## Cc1nc2c(F)cc(-c3nc(Nc4cc(Sc5cnc(N6CCC7(CC6)CO[C@@H](C)[C@H]7N)cn5)c(Cl)cn4)ncc3F)cc2n1C(C)C
CDK4/Cyclin D3
  IC50: > 1000 nM

## CN(C)C(=O)c1cc2cnc(Nc3nccc(Sc4cnc(N5CCC6(CC5)Cc5ccccc5[C@H]6N)cn4)c3Cl)nc2n1C1CCCC1
CDK4/Cyclin D3
  IC50: > 1000 nM
[1]
  IC50: 3.2 nM

## CN(C)C(=O)c1cc2cnc(Nc3ccc(Sc4cnc(N5CCC6(CC5)Cc5ccccc5[C@H]6N)cn4)c(Cl)c3)nc2n1C1CCCC1
CDK4/Cyclin D3
  IC50: > 1000 nM
[1]
  IC50: 52.1 nM

## Cc1nc2c(F)cc(-c3nc(Nc4cc(Sc5cnc(N6CCC7(CC6)CO[C@@H](C)[C@H]7N)cn5)ccn4)ncc3F)cc2n1C(C)C
MDA-MB-468 [2]; Homo sapiens, MDA-MB-468, 48 h
  IC50: 9620 nM
CDK4/Cyclin D3
  IC50: 16.1 nM
EMT6 [3]; Mus musculus, EMT6, 48 h
  IC50: 1100 nM
MDA-MB-231 [4]; Homo sapiens, MDA-MB-231, 48 h
  IC50: 5130 nM
[1]
  IC50: 47.2 nM

## Cc1nc2c(F)cc(-c3nc(Nc4ccc(Sc5cnc(N6CCC7(CC6)CO[C@@H](C)[C@H]7N)cn5)c(Cl)n4)ncc3F)cc2n1C(C)C
CDK4/Cyclin D3
  IC50: 139 nM

## C[C@@H]1OCC2(CCN(c3cnc(Sc4ccnc(N)c4Cl)c(N)n3)CC2)[C@@H]1N [BATOPROTAFIB]
MDA-MB-468 [2]; mda-mb-468
  IC50: > 20000 nM
MDA-MB-231 [5]
  IC50: 12900 nM
EMT6 [6]
  inhibition in vivo at 40 mg/kg: 74%
MDA-MB-231 [7]
  Activity: 12.42%
MDA-MB-231 [8]
  Activity: 1.07%
MDA-MB-231 [9]
  viability at 3 µM: 82.5%
MDA-MB-231 [10]
  Activity: 7.32%
MDA-MB-231 [11]
  Activity: 2.6%
MDA-MB-231 [12]
  Activity: 9.13%
EMT6 [13]
  IC50: 2490 nM
EMT6 [14]
  inhibition in vivo at 40 mg/kg: 60%
MDA-MB-231 [15]
  Activity: 56.7%
MDA-MB-231 [16]
  Activity: 2%
MDA-MB-468 [17]
  IC50: 3110 nM
EMT6 [3]; emt6
  IC50: 7030 nM
MDA-MB-231 [18]
  Activity: 40.7%
MDA-MB-231 [19]
  Activity: 44.8%
MDA-MB-231 [20]
  Activity: 8.17%
MDA-MB-231 [4]; mda-mb-231
  IC50: > 20000 nM
MDA-MB-231 [21]
  viability at 3 µM: 78.5%
MDA-MB-231 [22]
  Activity: 0.95%
MDA-MB-231 [23]
  Activity: 53.2%

## CN(C)C(=O)c1cc2cnc(Sc3cnc(N4CCC(C)(N)CC4)cn3)nc2n1C1CCCC1
CDK4/Cyclin D3
  IC50: > 1000 nM
[1]
  IC50: > 1000 nM

## Cc1nc2c(F)cc(-c3nc(Nc4nccc(Sc5cnc(N6CCC7(CC6)Cc6ccccc6[C@H]7N)cn5)c4Cl)ncc3F)cc2n1C(C)C
MDA-MB-468 [2]; Homo sapiens, MDA-MB-468, 48 h
  IC50: 3900 nM
CDK4/Cyclin D3
  IC50: 95.9 nM
EMT6 [3]; Mus musculus, EMT6, 48 h
  IC50: 1070 nM
MDA-MB-231 [4]; Homo sapiens, MDA-MB-231, 48 h
  IC50: 4440 nM
[1]
  IC50: 8.2 nM

## CN(C)C(=O)c1cc2cnc(Nc3ccc(Sc4cnc(N5CCC(C)(N)CC5)cn4)c(Cl)n3)nc2n1C1CCCC1
CDK4/Cyclin D3
  IC50: 51.1 nM

## CN(C)C(=O)c1cc2cnc(Nc3ccc(Sc4cnc(N5CCC(C)(N)CC5)cn4)cn3)nc2n1C1CCCC1
CDK4/Cyclin D3
  IC50: 8.1 nM

## CN(C)C(=O)c1cc2cnc(Nc3nccc(Sc4cnc(N5CCC(C)(N)CC5)cn4)c3Cl)nc2n1C1CCCC1
CDK4/Cyclin D3
  IC50: 443 nM
[1]
  IC50: 31.3 nM

## Cc1nc2c(F)cc(-c3nc(Nc4cnc(Sc5cnc(N6CCC7(CC6)CO[C@@H](C)[C@H]7N)cn5)c(Cl)c4)ncc3F)cc2n1C(C)C
CDK4/Cyclin D3
  IC50: 9.1 nM
[1]
  IC50: 205 nM

## Cc1nc2c(F)cc(-c3nc(Nc4cc(Cl)c(Sc5cnc(N6CCC7(CC6)CO[C@@H](C)[C@H]7N)cn5)cn4)ncc3F)cc2n1C(C)C
CDK4/Cyclin D3
  IC50: 8.8 nM

## CN(C)C(=O)c1cc2cnc(Nc3ccc(Sc4cnc(N5CCC6(CC5)Cc5ccccc5[C@H]6N)cn4)c(Cl)n3)nc2n1C1CCCC1
CDK4/Cyclin D3
  IC50: 519 nM
[1]
  IC50: 34.1 nM

## Cc1nc2c(F)cc(-c3nc(Nc4ccc(Sc5cnc(N6CCC7(CC6)CO[C@@H](C)[C@H]7N)cn5)c(Cl)c4)ncc3F)cc2n1C(C)C
MDA-MB-468 [2]; Homo sapiens, MDA-MB-468, 48 h
  IC50: 10300 nM
CDK4/Cyclin D3
  IC50: 7 nM
EMT6 [3]; Mus musculus, EMT6, 48 h
  IC50: 1660 nM
MDA-MB-231 [4]; Homo sapiens, MDA-MB-231, 48 h
  IC50: 3240 nM

## CCN1CCN(Cc2ccc(Nc3ncc(F)c(-c4cc(F)c5nc(C)n(C(C)C)c5c4)n3)nc2)CC1 [ABEMACICLIB]
MDA-MB-468 [2]; Homo sapiens, MDA-MB-468, 48 h
  IC50: > 20000 nM
MDA-MB-231 [8]
  Activity: 1.42%
MDA-MB-231 [9]
  viability at 3 µM: 86%
MDA-MB-231 [10]
  Activity: 5.86%
MDA-MB-231 [11]
  Activity: 2.7%
MDA-MB-231 [12]
  Activity: 6.73%
EMT6 [14]
  inhibition in vivo at 40 mg/kg: 35%
MDA-MB-231 [15]
  Activity: 60.2%
EMT6 [3]; Mus musculus, EMT6, 48 h
  IC50: 4180 nM
MDA-MB-231 [18]
  Activity: 37.1%
MDA-MB-231 [4]; Homo sapiens, MDA-MB-231, 48 h
  IC50: > 20000 nM

## Cc1nc2c(F)cc(-c3nc(Nc4ccc(Cl)c(Sc5cnc(N6CCC7(CC6)CO[C@@H](C)[C@H]7N)cn5)n4)ncc3F)cc2n1C(C)C
CDK4/Cyclin D3
  IC50: 212 nM
[1]
  IC50: 618 nM

## Cc1nc2c(F)cc(-c3nc(Nc4cccc(Sc5cnc(N6CCC7(CC6)CO[C@@H](C)[C@H]7N)cn5)c4Cl)ncc3F)cc2n1C(C)C
MDA-MB-468 [2]; Homo sapiens, MDA-MB-468, 48 h
  IC50: 9100 nM
CDK4/Cyclin D3
  IC50: 6.7 nM
EMT6 [3]; Mus musculus, EMT6, 48 h
  IC50: 580 nM
MDA-MB-231 [4]; Homo sapiens, MDA-MB-231, 48 h
  IC50: 4550 nM
[1]
  IC50: 16.5 nM

## Cc1nc2c(F)cc(-c3nc(Nc4ccc(Sc5cnc(N6CCC7(CC6)Cc6ccccc6[C@H]7N)cn5)c(Cl)n4)ncc3F)cc2n1C(C)C
CDK4/Cyclin D3
  IC50: 445 nM
[1]
  IC50: 673 nM
